From patent publication US20120003310A1 (priority 2009, published 2012)

Assays:
[1] = Rasagiline citrate salt formation in solvents: extractable free rasagiline base (toluene extraction, TLC), pH, NMR equivalents; settings: for Extracted R-PAI (%) / Extracted R-PAI (amount): free rasagiline base extracted or filtered from the citrate salt solution, solvent and mole proportions per example; for pH (after extraction of R-PAI): value in parentheses
Text: (§1) The combined toluenic extract was evaporated to dryness.
as §1

[2] = Hygroscopicity: citrate salts exposed to atmospheric air in open dishes at ambient temperature; type: physicochemical; settings: for Changes on exposure to atmosphere (appearance): open dish, ambient temperature
Text: (§2) The changes were observed and recorded.

[3] = Aqueous solubility of rasagiline base and rasagiline salts
[4] = per reference; cited from earlier work
[5] = Appearance of citrate salts stored in closed sealed glass vials in refrigerator at 7±2° C.; type: physicochemical; settings: sealed glass vial, refrigerator 7±2° C.
Text: as §2

[6] = citrate salt of the drug substance, per reference; cited from earlier work
[7] = per reference; cited from earlier work; remark: listed apart in the source
[8] = such as hexane, toluene and ethylacetate
[9] = AZILECT Product Label, May 2006; cited from earlier work
[10] = time of exposure 1:50-2:00 hrs:min

Molecule: C#CCN[C@@H]1CCc2ccccc21.O=C(O)CC(O)(CC(=O)O)C(=O)O [Example 19.7]
- Extracted R-PAI (%) [1]: (38.2%)
- Extracted R-PAI (amount) [1]: 3.92 g

Molecule: rasagiline citrate
- hygroscopicity compared to rasagiline base and other rasagiline salts ([2]; Tables 22b and 22c): highest hygroscopicity
- water solubility compared to rasagiline base and other rasagiline salts ([3]; Tables 22b and 22c): highest water solubility

Molecule: Cl [Chloride]
- Hygroscopicity by KF [4]: Not hygroscopic

Molecule: C#CCN[C@@H]1CCc2ccccc21.O=C(O)CC(O)(CC(=O)O)C(=O)O [Example 19.13]
- Extracted R-PAI (%) [1]: (48%)
- Extracted R-PAI (amount) [1]: 2.47 g

Molecule: Oxalate
- Hygroscopicity by KF [4]: Not hygroscopic

Molecule: C#CCN[C@@H]1CCc2ccccc21.C#CCN[C@@H]1CCc2ccccc21.O=C(O)CC(O)(CC(=O)O)C(=O)O [Example 4c]
- Changes on exposure to atmosphere (appearance) ([2]; time of exposure 0:00 hrs:min): Powder
- Changes on exposure to atmosphere (appearance) ([2]; time of exposure 0:50-1:00 hrs:min): Powder
- Changes on exposure to atmosphere (appearance) ([2]; time of exposure 0:30 hrs:min): Powder
- Changes on exposure to atmosphere (appearance) [2, 10]: Powder
- Changes on exposure to atmosphere (appearance) ([2]; time of exposure 5:00 hrs:min): Lump powder
- Appearance ([5]; storage 0 months): White powder
- Appearance ([5]; storage 3 months): White powder
- Appearance ([5]; storage 6 months): White powder

Molecule: C#CCN[C@@H]1CCc2ccccc21.O=C(O)CC(O)(CC(=O)O)C(=O)O [Example 4b]
- Changes on exposure to atmosphere (appearance) ([2]; time of exposure 0:00 hrs:min): Powder
- Changes on exposure to atmosphere (appearance) [2, 10]: Semi-solid
- Changes on exposure to atmosphere (appearance) ([2]; time of exposure 6:00 hrs:min): Syrup
- Changes on exposure to atmosphere (appearance) ([2]; time of exposure 7:00 hrs:min): Syrup
- Appearance ([5]; storage 0 months): White powder
- Appearance ([5]; storage 3 months): White powder
- Appearance ([5]; storage 6 months): White powder

Molecule: C#CCN[C@@H]1CCc2ccccc21.O=C(O)CC(O)(CC(=O)O)C(=O)O [Example 19.1]
- Extracted R-PAI (%) [1]: 1.75%
- Extracted R-PAI (amount) [1]: 0.06 g

Molecule: C#CCN[C@@H]1CCc2ccccc21.C#CCN[C@@H]1CCc2ccccc21.C#CCN[C@@H]1CCc2ccccc21.O=C(O)CC(O)(CC(=O)O)C(=O)O [Example 4d]
- Changes on exposure to atmosphere (appearance) ([2]; time of exposure 0:00 hrs:min): Powder
- Changes on exposure to atmosphere (appearance) ([2]; time of exposure 0:30 hrs:min): Powder
- Changes on exposure to atmosphere (appearance) ([2]; time of exposure 5:00 hrs:min): Semi-solid
- Changes on exposure to atmosphere (appearance) ([2]; time of exposure 6:00 hrs:min): Semi-solid
- Appearance ([5]; storage 0 months): White powder
- Appearance ([5]; storage 3 months): White powder
- Appearance ([5]; storage 6 months): White powder

Molecule: C#CCN[C@@H]1CCc2ccccc21.O=C(O)CC(O)(CC(=O)O)C(=O)O [Example 19.14]
- pH (after extraction of R-PAI) [1]: 3.49
- pH ([1]; value outside parentheses, before extraction of R-PAI): 3.53

Molecule: Cc1ccc(NC(=O)c2ccc(CN3CCN(C)CC3)cc2)cc1Nc1nccc(-c2cccnc2)n1
- Polynorpb [6]: Crystalline

Molecule: O=C(O)CC(O)(CC(=O)O)C(=O)O [citric acid]
- Hygroscopicity by KF [4]: low

Molecule: C#CCN[C@@H]1CCc2ccccc21.O=C(O)CC(O)(CC(=O)O)C(=O)O [Example 19.4]
- Extracted R-PAI (%) [1]: (22%)
- Extracted R-PAI (amount) [1]: 1.51 g

Molecule: C#CCN[C@@H]1CCc2ccccc21.CCS(=O)(=O)O [Esylate]
- Water solubility [7]: >=300 mg/ml

Molecule: C[C@@H]1CCN(C(=O)CC#N)C[C@@H]1N(C)c1ncnc2[nH]ccc12
- Polynorpb [6]: Crystalline

Molecule: N#Cc1ccc2[nH]c(O)c(-c3ccc(CN4CCOCC4)cn3)c2c1
- Polynorpb [6]: Crystalline

Molecule: C#CCN[C@@H]1CCc2ccccc21.O=C(O)CC(O)(CC(=O)O)C(=O)O [Example 19.6]
- Extracted R-PAI (%) [1]: (43.3%)
- Extracted R-PAI (amount) [1]: 4.44 g

Molecule: O=C(O)CC(O)(CC(=O)O)C(=O)O.c1cnc2cc3c(cc2n1)C1CNCC3C1
- Polynorpb [6]: Crystalline

Molecule: C#CCN[C@@H]1CCc2ccccc21.O=C(O)CC(O)(CC(=O)O)C(=O)O [Example 19.17]
- pH (after extraction of R-PAI) [1]: (3.41)

Molecule: C[C@@H]1CCCN1CCc1ccc2cc(-n3ncccc3=O)ccc2c1
- Polynorpb [6]: Crystalline

Molecule: C#CCN[C@@H]1CCc2ccccc21.O=C(O)CC(O)(CC(=O)O)C(=O)O
- free rasagiline that may be extracted from the aqueous solution of the salt [1]: A few percent
- stability of the salt in solvents ([1]; aqueous and other solutions (alcohol, MEK, acetone)): stable in most solvents

Molecule: C#CCN[C@@H]1CCc2ccccc21 [Mesylate]
- Hygroscopicity by KF [4]: Not hygroscopic

Molecule: Cc1[nH]c(C=C2C(=O)Nc3ccc(F)cc32)c(C)c1C(=O)NCCN1CCCC1
- Polynorpb [6]: Crystalline

Molecule: C#CCN[C@@H]1CCc2ccccc21 [Solid R-PAI (Free Base)]
- Hygroscopicity by KF [4]: Not hygroscopic
- Water solubility [7]: low

Molecule: C#CCN[C@@H]1CCc2ccccc21.C#CCN[C@@H]1CCc2ccccc21.O=S(=O)(O)CCS(=O)(=O)O [Edisilate]
- Hygroscopicity by KF [4]: Not hygroscopic

Molecule: C#CCN[C@@H]1CCc2ccccc21 [rasagiline, R(+)-N-propargyl-1-aminoindan]
- solubility in non-polar organic solvents [8]: very soluble
- absolute bioavailability [9]: about 36%
- amount dissolving in aqueous reaction solution of citric acid [3]: more than 10 wt %

Molecule: Phosphate
- Water solubility [7]: >=720 mg/ml

Molecule: CN1CCN(c2ccccc2C=C2SCCN(c3ccc(Cl)c(Cl)c3)C2=O)CC1
- Polynorpb [6]: Crystalline

Molecule: Tosylate
- Water solubility [7]: 60 to 70 mg/mL
